Consider seven compounds from PMC8612954 (Chemosphere, 2021).

As usually defined, the Kd is the concentration at which binding is half-saturated. The low end stands for a tighter complex, the high end for a looser complex.

For data set [1], the target named is T1, bovine serum albumin (BSA) (Bos taurus, UniProt P02769). In words: Fluorescence quenching of BSA by PFAS. The conditions noted are these: for nHill (Hill coefficient, binding cooperativity): Hill model fit, 25°C and 35°C, independent of temperature; for shift in wavelength of maximum fluorescence emission of BSA: maximum shift on PFAS binding (Figure S5). Format: binding.

Data set [2] has as its target T1, bovine serum albumin (BSA). In words: Equilibrium dialysis. In kind it is binding. The conditions noted are these: for f (fraction of bound PFAS) / KPW (protein/water partition coefficient): 37°C, standard error in parentheses; for f (fraction of bound PFAS): 10 µM BSA in PBS.
Data set [3] concerns the target T1, bovine serum albumin (BSA). The conditions noted are these: ref Allendorf et al. (2019), cited from earlier work; for Ka (association constant): PFAS-BSA binding.
The test system of a further data set is serum albumin. The conditions noted are these: ref Bischel et al. (2011); cited from earlier work.

Where two headings read alike, the source gives them in different places. Bounds are passed on as bounds.

T1 sequence (P02769 25-607): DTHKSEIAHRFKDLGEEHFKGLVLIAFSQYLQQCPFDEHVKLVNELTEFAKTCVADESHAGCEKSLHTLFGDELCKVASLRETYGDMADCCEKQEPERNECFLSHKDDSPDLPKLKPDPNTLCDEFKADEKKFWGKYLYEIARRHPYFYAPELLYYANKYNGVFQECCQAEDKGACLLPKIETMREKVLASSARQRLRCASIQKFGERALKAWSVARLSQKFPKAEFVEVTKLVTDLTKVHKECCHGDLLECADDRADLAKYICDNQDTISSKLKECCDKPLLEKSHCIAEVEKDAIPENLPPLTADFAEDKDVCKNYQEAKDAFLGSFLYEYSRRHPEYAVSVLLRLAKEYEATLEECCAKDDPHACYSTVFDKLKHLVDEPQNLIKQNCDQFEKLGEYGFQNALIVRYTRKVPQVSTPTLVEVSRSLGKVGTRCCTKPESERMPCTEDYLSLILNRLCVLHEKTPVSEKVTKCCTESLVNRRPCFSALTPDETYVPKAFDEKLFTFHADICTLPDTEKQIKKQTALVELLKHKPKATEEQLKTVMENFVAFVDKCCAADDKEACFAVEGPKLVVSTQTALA

Turning to `O=C(O)C(F)(F)C(F)(F)C(F)(F)C(F)(F)C(F)(F)C(F)(F)C(F)(F)C(F)(F)F` [PFNA, perfluorononanoic acid], in data set [1], the “nHill (Hill coefficient, binding cooperativity)” value (“nHill” below) is listed as “noncooperative” and the “shift in wavelength of maximum fluorescence emission of BSA” value (“shift in wavelength” for short) was −13 nm. The “f (fraction of bound PFAS)” value in data set [2] is reported as 0.975 (0.005). Also, the “KPW (protein/water partition coefficient)” value in data set [2] (PFAS:BSA molar ratio 0.1:1) was 8.52 (1.62) 10^5. The “Ka (association constant)” value in data set [3] is reported as 14 (2.2) 10^5 M^−1.

As for `O=C(O)C(F)(OC(F)(F)C(F)(F)C(F)(F)F)C(F)(F)F` (stereo not shown) [Gen X, 2,3,3,3-tetrafluoro-2-(heptafluoropropoxy)propanoate], in data set [1], the “nHill” value is listed as “noncooperative” and the “shift in wavelength” value is listed as “do not show marked shifts”. In data set [2], the “f (fraction of bound PFAS)” value was 0.265 (0.006). Also, in data set [2] (PFAS:BSA molar ratio 2:1), the “KPW (protein/water partition coefficient)” value is given as 0.07 (0.002) 10^5. The “Ka (association constant)” value in data set [3] is given as 0.23 (0.05) 10^5 M^−1.

`O=S(=O)(O)C(F)(F)C(F)(F)C(F)(F)C(F)(F)F` [PFBS, perfluorobutanesulfonic acid]: in data set [1] (1.25 µM BSA, pH 7.4 PBS, values from Table S3), the “fa (fractional accessibility, modified Stern-Volmer equation)” value is ~ 0.3. Also, in data set [1], the “nHill” value was less than 1 and the “shift in wavelength” value is “do not show marked shifts”. In addition, the “f (fraction of bound PFAS)” value in data set [2] is listed as 0.249 (0.064). Also, the “KPW (protein/water partition coefficient)” value in data set [2] (PFAS:BSA molar ratio 2:1) is listed as 0.07 (0.02) 10^5. In data set [3], the “Ka (association constant)” value is 1.1 (0.28) 10^5 M^−1 and the “f (fraction of bound PFAS)” value is 0.44. The “f (fraction of bound PFAS)” value in the data set on serum albumin is recorded as no less than 0.99.

Regarding `O=S(=O)(O)C(F)(F)C(F)(F)C(F)(F)C(F)(F)C(F)(F)C(F)(F)C(F)(F)C(F)(F)F` [PFOS, perfluorooctanesulfonic acid], in data set [1], the “nHill” value is given as “positive binding cooperativity” and the “shift in wavelength” value is −7 nm. Also, the “f (fraction of bound PFAS)” value in data set [2] is 0.942 (0.004). Moreover, the “KPW (protein/water partition coefficient)” value in data set [2] (PFAS:BSA molar ratio 0.1:1) is 3.39 (0.27) 10^5. Also, the “Ka (association constant)” value in data set [3] is recorded as 32 (4.9) 10^5 M^−1.

Regarding `O=C(O)C(F)(F)C(F)(F)C(F)(F)C(F)(F)C(F)(F)C(F)(F)C(F)(F)F` [PFOA, perfluorooctanoic acid], the “nHill” value in data set [1] was “positive binding cooperativity”. Further, in data set [2], the affinity, expressed as Kd, was 2.65 µM and the “f (fraction of bound PFAS)” value is recorded as 0.755 (0.038). Moreover, in data set [2] (PFAS:BSA molar ratio 0.1:1), the “KPW (protein/water partition coefficient)” value is 0.66 (0.13) 10^5. For the same compound, in data set [3], the “Ka (association constant)” value is reported as 11 (1.1) 10^5 M^−1 and the “f (fraction of bound PFAS)” value is on record as 0.44. Moreover, the “f (fraction of bound PFAS)” value with serum albumin is on record as no less than 0.99.

With `O=C(O)C(F)(F)C(F)(F)C(F)(F)C(F)(F)C(F)(F)C(F)(F)C(F)(F)C(F)(F)C(F)(F)F` [PFDA, perfluorodecanoic acid], in data set [1], the “nHill” value was less than 1 and the “shift in wavelength” value is −10 nm. The “f (fraction of bound PFAS)” value in data set [2] was 0.983 (0.004). Further, in data set [2] (PFAS:BSA molar ratio 0.1:1), the “KPW (protein/water partition coefficient)” value was 12.66 (3.23) 10^5. The “Ka (association constant)” value in data set [3] was 36 (3.1) 10^5 M^−1.

Consider `O=S(=O)(O)C(F)(F)C(F)(F)C(F)(F)C(F)(F)C(F)(F)C(F)(F)F` [PFHxS, perfluorohexanesulfonic acid], for which, in data set [1], the “nHill” value is listed as “positive binding cooperativity” and the “shift in wavelength” value was −10 nm. Moreover, in data set [2], the Kd was 1.54 µM and the “f (fraction of bound PFAS)” value was 0.842 (0.008). In addition, in data set [2] (PFAS:BSA molar ratio 0.1:1), the “KPW (protein/water partition coefficient)” value is recorded as 1.11 (0.06) 10^5. Also, in data set [3], the “Ka (association constant)” value is on record as 44 (3.5) 10^5 M^−1 and the “f (fraction of bound PFAS)” value is given as 0.62. In the data set on serum albumin, the “f (fraction of bound PFAS)” value is recorded as no less than 0.99.
